Assays:
Test in all cases: IP kinase assay, GST-P70S6K peptide, anti-p-P70S6K Thr389 immunoblot
Type in all cases: biochemical
Conditions in all cases: […] inhibitor, […] ATP, […] MgCl2, pH […] C; ATP-competitive
[1] = target: mTORC2 (Homo sapiens, UniProt P42345)
[2] = target: mTORC3 (Homo sapiens, UniProt P42345)
[3] = target: mTORC1 (Homo sapiens, UniProt P42345)

| Structure (SMILES) | IP kinase assay, GST-P70S6K peptide, anti-p-P70S6K Thr389 immunoblot [1] | IP kinase assay, GST-P70S6K peptide, anti-p-P70S6K Thr389 immunoblot [2] | IP kinase assay, GST-P70S6K peptide, anti-p-P70S6K Thr389 immunoblot [3] |
| --- | --- | --- | --- |
| COc1ccc(-c2ccc3c(N4CCOC[C@@H]4C)nc(N4CCOC[C@@H]4C)nc3n2)cc1CO [AZD-8055] | inhibited the kinase activity of all mTORCs | preincubation with OSI-27 or AZD-8055 at an mTOR-specific concentration inhibited the kinase activity | inhibited the kinase activity of all mTORCs |
| COc1cccc2cc(-c3nc([C@H]4CC[C@H](C(=O)O)CC4)n4ncnc(N)c34)[nH]c12 [OSI-27] | inhibited the kinase activity of all mTORCs | preincubation with OSI-27 or AZD-8055 at an mTOR-specific concentration inhibited the kinase activity | inhibited the kinase activity of all mTORCs |
